In US20160045505A1, “COMPOUNDS AND COMPOSITIONS FOR THE TREATMENT OF PARASITIC DISEASES” (NOVARTIS AG, priority 2013, published 2016):
pEC50: −log10 of the molar value. Like-named read-outs stand apart in the source and are kept apart here.

How the values were obtained:
[1] = test system: Leishmania donovani axenic amastigote parasites; test: Leishmania donovani axenic amastigote proliferation assay (Cell TiterGlo luminescence, 2 day incubation); format: cell-based; conditions: read-out: L. donovani amastigotes EC50
[2] = test system: L. donovani HU3 strain in mouse peritoneal macrophages; test: Assay for proliferation of Leishmania parasites in infected mouse peritoneal macrophages (SybrGreen staining, high-content imaging, 5 days); format: cell-based, Leishmania donovani; conditions: L. donovani in mouse peritoneal macrophages, read-out: L. donovani Macrophage EC50
[3] = test system: Trypanosoma brucei Lister 427 strain, bloodstream form; test: Assay for proliferation of kinetoplastid parasite Trypanosoma brucei (Cell Titer Glo, 48 hours); format: cell-based; conditions: T. brucei Lister 427 bloodstream form, read-out: T. brucei EC50
From the text: Assay for Proliferation of Kinetoplastid Parasite Trypanosoma brucei.
The proliferation is quantified by the addition of Cell Titer Glo (Promega®) a luminescent cell viability assay that measures the number of viable cells in culture based on the quantification of cellular ATP amount, which is an indicator of metabolically active cells.
The following assay illustrates the invention without in any way limiting the scope of the invention. This parasite proliferation assay measures the increase in parasite growth using an assay that measures ATP activity, Cell Titer Glo®.
Trypanosoma brucei Lister 427 strain is grown in HMI-9 Trypanosome media for T. brucei bloodstream form. 30 μl of HMI-9 media is dispensed into 384 well assay plates. 200 nl of compounds of the invention (in DMSO), including anti-trypanosome controls (Pentamidine and suramin), are then transferred into the assay plates, as well as DMSO alone to serve as a negative control for inhibition. Then 25 μl of a suspension of T. brucei culture in HMI-9 media is dispensed into the assay plates. The final concentration of parasites in culture corresponds to 1.7% of 0.5 uM ATP activity with Cell Titer Glo® in HMI-9 media. The plates are placed in a 37° C. incubator for 48 hours in an atmospheric environment containing 5% CO2. 40 μl of Cell Titer Glo® is dispensed into the plates. The plates are then read for luminescence. The percentage inhibition of 50%, EC50, is calculated for each compound.

[4] = Leishmania donovani, axenic amastigotes, inhibition of proliferation
[5] = Leishmania donovani, Peritoneal macrophage, inhibition of proliferation
[6] = Trypanosoma brucei, inhibition of proliferation
[7] = Leishmania donovani, L. donovani axenic amastigotes
[8] = Leishmania donovani, Peritoneal macrophage

| SMILES | pEC50 [1, 7] | pEC50 [2, 8] | pEC50 ([3]; Trypanosoma brucei) | pEC50 [1, 4] | pEC50 [2, 5] | pEC50 [3, 6] | other results |
| --- | --- | --- | --- | --- | --- | --- | --- |
| CNc1ccc(-c2cnc3nc(-c4cc(NC(=O)N5CCCC5)ccc4Cl)cn3c2)cc1 [Compound 26, N-(4-chloro-3-(6-(4-(methylamino)phenyl)imidazo[1,2-a]pyrimidin-2-yl)phenyl)pyrrolidine-1-carboxamide] | – | – | – | 7.24 | 6.98 | 7.63 | – |
| COC(=O)Nc1ccc(-c2cnc3nc(-c4cc(NC(=O)c5ccc(C)o5)ccc4Cl)cn3c2)cc1 [Compound 27, methyl (4-(2-(2-chloro-5-(5-methylfuran-2-carboxamido)phenyl)imidazo[1,2-a]pyrimidin-6-yl)phenyl)carbamate] | – | – | – | 7.46 | 6.96 | 6.23 | – |
| O=C(Nc1ccc(Cl)c(-c2cn3cc(-c4ccsc4)cnc3n2)c1)N1CCCC1 [Compound 28] | – | – | – | 7.55 | 6.89 | 8.03 | – |
| Cc1ccc(C(=O)Nc2ccc(Cl)c(-c3cn4cc(-c5ccsc5)cnc4n3)c2)o1 [Compound 30] | – | – | – | 7.00 | 6.76 | 7.06 | – |
| Cc1ccc(C(=O)Nc2ccc(Cl)c(-c3cn4cc(-c5ccccc5)cnc4n3)c2)o1 [Compound 31, N-(4-chloro-3-(6-phenylimidazo[1,2-a]pyrimidin-2-yl)phenyl)-5-methylfuran-2-carboxamide] | – | – | – | 6.77 | 6.61 | 7.17 | – |
| COCCOC(=O)Nc1ccc(Cl)c(-c2cn3cc(-c4ccc(NC(=O)OC)cc4)cnc3n2)c1 [Compound 32, 2-methoxyethyl N-[4-chloro-3-(6-{4-[(methoxycarbonyl)amino]phenyl}imidazo[1,2-a]pyrimidin-2-yl)phenyl]carbamate] | – | – | – | 6.93 | 6.48 | 6.73 | – |
| CNc1ccc(-c2cnc3nc(-c4cc(NC(=O)c5ccc(C)o5)ccc4Cl)cn3c2)cc1 [Compound 33, N-(4-chloro-3-(6-(4-(methylamino)phenyl)imidazo[1,2-a]pyrimidin-2-yl)phenyl)-5-methylfuran-2-carboxamide] | – | – | – | 6.43 | 6.18 | 6.73 | – |
| COCCOC(=O)Nc1ccc(Cl)c(-c2cn3cc(-c4ccsc4)cnc3n2)c1 [Compound 34] | – | – | – | 6.59 | 6.12 | 6.31 | – |
| COCCOC(=O)Nc1ccc(Cl)c(-c2cn3cc(-c4ccccc4)cnc3n2)c1 [Compound 35] | – | – | – | 6.14 | 6.06 | 5.95 | – |
| CCOC(=O)Nc1ccc(Cl)c(-c2cn3cc(-c4ccc(NC)cc4)cnc3n2)c1 [Compound 37] | – | – | – | 6.21 | 5.52 | 6.71 | – |
| O=C(Nc1ccc(Cl)c(-c2cn3cc(Cl)cnc3n2)c1)c1ccco1 [Compound 38] | – | – | – | 5.23 | 4.81 | 5.74 | – |
| O=C(Nc1ccc(Cl)c(-c2nc3ncc(-c4ccccc4)cn3c2F)c1)N1CCCC1 [Compound 39] | – | – | – | < 5.47 | 6.74 | 7.13 | – |
| CC(C)OC(=O)Nc1cnc2nc(-c3cc(NC(=O)c4cncn4C)ccc3F)cn2c1 [Compound 96] | – | – | – | < 4.80 | 4.37 | 5.83 | – |
| CON(C)C(=O)Nc1cccc(-c2cn3cc(NC(=O)OC(C)C)cnc3n2)c1 [Compound 215] | – | – | – | – | – | – | pEC50 ([1]; axenic amastigotes, inhibition of proliferation): 6.27; pEC50 ([2]; inhibition of proliferation): 5.88; pEC50 ([3]; inhibition of proliferation): 6.74 |
| CON(C)C(=O)Nc1ccc(F)c(-c2cn3cc(NC(=O)OC(C)C)cnc3n2)c1 [Compound 221] | – | – | – | 6.60 | 5.98 | 6.75 | – |
| CC(C)OC(=O)Nc1cnc2nc(-c3cc(NC(=O)N4CCC4)ccc3F)cn2c1 [Compound 226] | – | – | – | 7.38 | 6.42 | 7.43 | – |
| CC(C)OC(=O)Nc1cnc2nc(-c3cc(NC(=O)N4CC(O)C4)ccc3F)cn2c1 [Compound 288] | – | – | – | 5.11 | < 4.30 | 4.47 | – |
| CC(C)OC(=O)Nc1cnc2nc(-c3cc(NC(=O)N4CC(C#N)C4)ccc3F)cn2c1 [Compound 290] | – | – | – | 5.50 | < 4.34 | 4.90 | – |
| CC(C)OC(=O)Nc1cnc2nc(-c3cc(NC(=O)N4CC(Cl)C4)ccc3F)cn2c1 [Compound 291] | – | – | – | 6.41 | 6.01 | 6.69 | – |
| CS(=O)(=O)Nc1ccc(F)c(-c2cn3cc(Br)cnc3n2)c1 [Compound 316, N-(3-(6-bromoimidazo[1,2-a]pyrimidin-2-yl)-4-Fluorophenyl)methanesulfonamide] | – | – | – | < 4.60 | < 4.30 | < 4.30 | – |
| Cc1nc(C)c(C(=O)Nc2ccc(F)c(-c3cn4cc(C5CC5)cnc4n3)c2)o1 [Compound 339, N-(3-(6-cyclopropylimidazo[1,2-a]pyrimidin-2-yl)-4-fluorophenyl)-2,4-dimethyloxazole-5-carboxamide] | – | – | – | 7.07 | 6.57 | 7.10 | – |
| Cc1nc(C)c(C(=O)Nc2ccc(F)c(-c3cn4cc(-c5ccc(CCO)cn5)cnc4n3)c2)o1 [Compound 350] | – | – | – | 7.80 | 6.89 | 7.28 | – |
| Cc1nc(C)c(C(=O)Nc2ccc(F)c(-c3cn4cc(-c5sc(C)nc5C)cnc4n3)c2)o1 [Compound 365] | – | – | – | 6.99 | 6.70 | 7.23 | – |

The next lines start with results.

| pEC50 [1, 7] | pEC50 [2, 8] | pEC50 ([3]; Trypanosoma brucei) | SMILES | pEC50 [1, 4] | pEC50 [2, 5] | pEC50 [3, 6] | other results |
| --- | --- | --- | --- | --- | --- | --- | --- |
| 7.20 | 6.74 | 7.26 | Cc1cccnc1-c1cnc2nc(-c3cc(NC(=O)N4CC(F)(F)C4)ccc3F)cn2c1 [Compound 403] | – | – | – | – |
| 7.66 | 7.19 | 7.77 | Cc1cccnc1-c1cnc2nc(-c3cc(NC(=O)N4CC[C@@H](F)C4)ccc3F)cn2c1 [Compound 410] | – | – | – | – |
| 6.68 | 5.52 | 7.12 | O=C(Nc1cnc2nc(-c3cc(NC(=O)N4CCCC4)ccc3F)cn2c1)OCc1ccccc1 [Compound 512, benzyl (2-(2-fluoro-5-(pyrrolidine-1-carboxamido)phenyl)imidazo[1,2-a]pyrimidin-6-yl)carbamate] | – | – | – | – |
| 6.02 | 5.80 | 6.37 | O=C(Nc1cnc2nc(-c3ccc(F)c(NC(=O)N4CCCC4)c3)cn2c1)OCc1ccccc1 [Compound 513, Benzyl (2-(4-fluoro-3-(pyrrolidine-1-carboxamido)phenyl)imidazo[1,2-a]pyrimidin-6-yl)carbamate] | – | – | – | – |
| 6.19 | 5.78 | 7.08 | O=C(Nc1ccc(F)c(-c2cn3cc(F)cnc3n2)c1)N1CCCC1 [Compound 514] | – | – | – | – |
| < 4.60 | 4.68 | < 4.30 | CN1CCN(C(=O)Nc2ccc(F)c(-c3cn4cc(Br)cnc4n3)c2)CC1 [Compound 516] | – | – | – | – |
| 5.34 | < 4.30 | 5.85 | COC(=O)Nc1ccc(F)c(-c2cn3cc(Br)cnc3n2)c1 [Compound 517] | – | – | – | – |
| < 4.60 | 4.42 | < 4.30 | CC(C)Nc1ccc(F)c(-c2cn3cc(NC(=O)OC(C)C)cnc3n2)c1 [Compound 523] | – | – | – | – |
| 5.14 | < 4.30 | 5.49 | CC(=O)Nc1ccc(F)c(-c2cn3cc(NC(=O)OC(C)(C)C)cnc3n2)c1 [Compound 529, tert-butyl (2-(5-acetamido-2-fluorophenyl)imidazo[1,2-a]pyrimidin-6-yl)carbamate] | – | – | – | – |
| 4.86 | < 4.30 | 4.75 | CC(C)(C)OC(=O)Nc1cnc2nc(-c3cc(NC=O)ccc3F)cn2c1 [Compound 532, tert-butyl (2-(2-fluoro-5-formamidophenyl)imidazo[1,2-a]pyrimidin-6-yl)carbamate] | – | – | – | – |
